One assay concerns the target T1, Human PD-L1/PD-1 (Homo sapiens, UniProt Q9NZQ7).
T1 construct: made in house; host or cells: HEK293T
The assay is described as follows: HTRF PD-1-Ig/PD-L1-His binding assay (human PD-L1). To be noted: cluster symbol; read-out: HTRF IC50 cluster. A digest of the protocol:
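Ig- and His-fused extracellular PD-1/PD-L1 binding in BSA/Tween-20 dPBS. HTRF with Eu anti-Ig (1 nM final) and APC anti-His (20 nM final).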

In assay [1] the target is T2, LK35.2-hPD-L1 cells / PE-labeled PD-1-Ig (Homo sapiens, UniProt Q9NZQ7).
T2 construct: expressed in transfected cells; host or cells: LK35.2 mouse B cell line
T2 sequence (Q9NZQ7 19-290): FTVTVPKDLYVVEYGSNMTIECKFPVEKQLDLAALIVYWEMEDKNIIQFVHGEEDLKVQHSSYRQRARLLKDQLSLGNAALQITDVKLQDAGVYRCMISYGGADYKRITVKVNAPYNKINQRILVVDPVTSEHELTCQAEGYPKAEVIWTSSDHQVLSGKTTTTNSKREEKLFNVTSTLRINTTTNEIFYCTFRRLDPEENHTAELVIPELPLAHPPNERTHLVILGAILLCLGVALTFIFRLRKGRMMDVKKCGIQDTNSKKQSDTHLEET
Put plainly: LK35.2-hPD-L1 cell binding high-content screening assay. Format: cell-based. To be noted: cluster symbol; cell line of CBA not given (LK35.2-hPD-L1 or 293T-hPD-L1); read-out: CBA IC50 cluster. A digest of the protocol: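 Binding of PE-conjugated human PD-1-Ig (1 nM final) to human PD-L1 stably expressed on a mouse B-cell line (LK35.2) was measured by high-content imaging after washes. Compound and labeled PD-1-Ig were co-incubated 1 h at 37 °C with cells in RPMI/10% FCS.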

Structures are written as SMILES. Positions of bridges follow the written chain, without caps; N, C: chain ends. Non-standard residues stand in square brackets, D forms with d. Residues, ends and D or L forms follow the SMILES beside them. Ala(indol-4-yl) = N[C@@H](Cc1cccc2[nH]ccc12)C(=O)O; Phe(4-Cl) = N[C@@H](Cc1ccc(Cl)cc1)C(=O)O; Pro(4,4-F2) = O=C(O)[C@@H]1CC(F)(F)CN1; Bta = N[C@@H](Cc1csc2ccccc12)C(=O)O; Hyp = O=C(O)[C@@H]1C[C@@H](O)CN1; NMeNle = CCCC[C@H](NC)C(=O)O; NMeA = CN[C@@H](C)C(=O)O; Dap = NC[C@H](N)C(=O)O; Aib = CC(C)(N)C(=O)O; Sar = CNCC(=O)O Where only a bound is given, the exact number is not on record here.

T1 sequence (Q9NZQ7 with tags, fused parts or gaps): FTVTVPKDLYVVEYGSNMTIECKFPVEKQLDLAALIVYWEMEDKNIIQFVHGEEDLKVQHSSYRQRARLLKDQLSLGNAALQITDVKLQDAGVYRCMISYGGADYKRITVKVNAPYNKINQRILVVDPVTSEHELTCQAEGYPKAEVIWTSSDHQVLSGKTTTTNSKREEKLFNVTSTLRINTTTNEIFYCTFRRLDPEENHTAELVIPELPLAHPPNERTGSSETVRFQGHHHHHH

`CCCC[C@H]1C(=O)N(C)[C@@H](CCCC)C(=O)N[C@@H](CCCNC(=N)N)C(=O)N[C@H](C(=O)NCC(N)=O)CSCC(=O)N[C@@H](Cc2ccccc2)C(=O)N(C)[C@@H](C)C(=O)N[C@@H](CC(N)=O)C(=O)N2CC(F)(F)C[C@H]2C(=O)N[C@@H](Cc2cnc[nH]2)C(=O)N[C@@H](CC(C)C)C(=O)N(C)CC(=O)N[C@@H](Cc2c[nH]c3ccccc23)C(=O)N[C@@H](CO)C(=O)N[C@@H](Cc2c[nH]c3ccccc23)C(=O)N1C` [Example 1112] ({CH2CO}-F[NMeA]N[Pro(4,4-F2)]HL[Sar]WSW[NMeNle][NMeNle]RCG-NH2; thioether N-14): the results for the IC50 (at Human PD-L1/PD-1; in assay [1]) were greater than 30.5 nM and greater than 74.3 nM, respectively.
With `CCCC[C@H]1C(=O)N(C)[C@@H](CCCC)C(=O)N[C@@H](CCCNC(=N)N)C(=O)N[C@H](C(=O)NCC(N)=O)CSCC(=O)N[C@@H](Cc2ccc(O)cc2)C(=O)N(C)[C@@H](C)C(=O)N[C@@H](CC(N)=O)C(=O)N2CCC[C@H]2C(=O)N[C@@H](CN)C(=O)N[C@@H](CC(C)C)C(=O)N2CCC[C@H]2C(=O)N[C@@H](Cc2c[nH]c3ccccc23)C(=O)N[C@@H](CO)C(=O)N[C@@H](Cc2c[nH]c3ccccc23)C(=O)N1C` [Example 1113] ({CH2CO}-Y[NMeA]NP[Dap]LPWSW[NMeNle][NMeNle]RCG-NH2; thioether N-14), the IC50 (commonly the concentration that inhibits the measured activity by half) at Human PD-L1/PD-1 fell in the range of 0.385 to 6.74 nM; in assay [1], 0.158 to 4.71 nM.
For the compound `CCCC[C@H]1C(=O)N(C)[C@@H](CCCC)C(=O)N[C@@H](CCCNC(=N)N)C(=O)N[C@H](C(=O)NCC(N)=O)CSCC(=O)N[C@@H](Cc2ccc(O)cc2)C(=O)N(C)[C@@H](C)C(=O)N[C@@H](CC(N)=O)C(=O)N2CCC[C@H]2C(=O)N[C@@H](CN)C(=O)N[C@@H](CC(C)C)C(=O)N2C[C@H](O)C[C@H]2C(=O)N[C@@H](Cc2c[nH]c3ccccc23)C(=O)N[C@@H](CO)C(=O)N[C@@H](Cc2c[nH]c3ccccc23)C(=O)N1C` [Example 1114] ({CH2CO}-Y[NMeA]NP[Dap]L[Hyp]WSW[NMeNle][NMeNle]RCG-NH2; thioether N-14), the figures for the IC50 (at Human PD-L1/PD-1; in assay [1]) were 6.76 to 30.3 nM and 0.158 to 4.71 nM, respectively.
In the same order, the values of `CCCC[C@H]1C(=O)N(C)[C@@H](CCCC)C(=O)N[C@@H](CCCNC(=N)N)C(=O)N[C@H](C(=O)NCC(N)=O)CSCC(=O)N[C@@H](Cc2ccc(O)cc2)C(=O)N(C)[C@@H](C)C(=O)N[C@@H](CC(N)=O)C(=O)N2CCC[C@H]2C(=O)N[C@@H](Cc2cnc[nH]2)C(=O)N[C@@H](CCC(=O)O)C(=O)N2CCC[C@H]2C(=O)N[C@@H](Cc2c[nH]c3ccccc23)C(=O)N[C@@H](CO)C(=O)N[C@@H](Cc2csc3ccccc23)C(=O)N1C` [Example 1115] ({CH2CO}-Y[NMeA]NPHEPWS[Bta][NMeNle][NMeNle]RCG-NH2; thioether N-14) are 0.385 to 6.74 nM and 0.158 to 4.71 nM.
In the same order, the values of `CCCC[C@H]1C(=O)N(C)[C@@H](CCCC)C(=O)N[C@@H](CCCNC(=N)N)C(=O)N[C@H](C(=O)NCC(N)=O)CSCC(=O)N[C@@H](Cc2ccccc2)C(=O)N(C)[C@@H](C)C(=O)N[C@@H](CC(N)=O)C(=O)N2CCC[C@H]2C(=O)N[C@@H](Cc2cnc[nH]2)C(=O)N[C@@H](CC(C)C)C(=O)N(C)CC(=O)N[C@@H](Cc2c[nH]c3ccccc23)C(=O)NC(C)(C)C(=O)N[C@@H](Cc2c[nH]c3ccccc23)C(=O)N1C` [Example 1116] ({CH2CO}-F[NMeA]NPHL[Sar]W[Aib]W[NMeNle][NMeNle]RCG-NH2; thioether N-14) are greater than 30.5 nM and greater than 74.3 nM.
Taken in the same sequence, the figures for `CCCC[C@H]1C(=O)N(C)[C@@H](CCCC)C(=O)N[C@@H](CCCNC(=N)N)C(=O)N[C@H](C(=O)NCC(N)=O)CSCC(=O)N[C@@H](Cc2ccc(Cl)cc2)C(=O)N(C)[C@@H](C)C(=O)N[C@@H](CC(N)=O)C(=O)N2CCC[C@H]2C(=O)N[C@@H](Cc2cnc[nH]2)C(=O)N[C@@H](CC(C)C)C(=O)N2CCC[C@H]2C(=O)N[C@@H](Cc2c[nH]c3ccccc23)C(=O)N[C@@H](CO)C(=O)N[C@@H](Cc2c[nH]c3ccccc23)C(=O)N1C` [Example 1117] ({CH2CO}-[Phe(4-Cl)][NMeA]NPHLPWSW[NMeNle][NMeNle]RCG-NH2; thioether N-14) were 6.76 to 30.3 nM and 4.78 to 72.9 nM.
Take `CCCC[C@H]1C(=O)N(C)[C@@H](CCCC)C(=O)N[C@@H](CCCNC(=N)N)C(=O)N[C@H](C(=O)NCC(N)=O)CSCC(=O)N[C@@H](Cc2ccc(O)cc2)C(=O)N(C)[C@@H](C)C(=O)N[C@@H](CC(N)=O)C(=O)N2CCC[C@H]2C(=O)N[C@@H](CN)C(=O)N[C@@H](CC(C)C)C(=O)N2C[C@H](O)C[C@H]2C(=O)N[C@@H](Cc2c[nH]c3ccccc23)C(=O)N[C@@H](CO)C(=O)N[C@@H](Cc2csc3ccccc23)C(=O)N1C` [Example 1118] ({CH2CO}-Y[NMeA]NP[Dap]L[Hyp]WS[Bta][NMeNle][NMeNle]RCG-NH2; thioether N-14): the IC50 lay within 6.76 to 30.3 nM on Human PD-L1/PD-1 and 0.158 to 4.71 nM in assay [1].
Taken in the same sequence, the figures for `CCCC[C@H]1C(=O)N(C)[C@@H](CCCC)C(=O)N[C@@H](CCCNC(=N)N)C(=O)N[C@H](C(=O)NCC(N)=O)CSCC(=O)N[C@@H](Cc2ccc(O)cc2)C(=O)N(C)[C@@H](C)C(=O)N[C@@H](CC(N)=O)C(=O)N2CCC[C@H]2C(=O)N[C@@H](Cc2cnc[nH]2)C(=O)N[C@@H](CC(C)C)C(=O)N2C[C@H](O)C[C@H]2C(=O)N[C@@H](Cc2c[nH]c3ccccc23)C(=O)N[C@@H](CO)C(=O)N[C@@H](Cc2c[nH]c3ccccc23)C(=O)N1C` [Example 1119] were 6.76 to 30.3 nM and 0.158 to 4.71 nM.
Taken in the same sequence, the figures for `CCCC[C@H]1C(=O)N(C)[C@@H](CCCC)C(=O)N[C@@H](CCCNC(=N)N)C(=O)N[C@H](C(=O)NCC(N)=O)CSCC(=O)N[C@@H](Cc2cccc3[nH]ccc23)C(=O)N(C)[C@@H](C)C(=O)N[C@@H](CC(N)=O)C(=O)N2CCC[C@H]2C(=O)N[C@@H](Cc2cnc[nH]2)C(=O)N[C@@H](CC(C)C)C(=O)N2CCC[C@H]2C(=O)N[C@@H](Cc2c[nH]c3ccccc23)C(=O)N[C@@H](CO)C(=O)N[C@@H](Cc2csc3ccccc23)C(=O)N1C` [Example 1120] ({CH2CO}-[Ala(indol-4-yl)][NMeA]NPHLPWS[Bta][NMeNle][NMeNle]RCG-NH2; thioether N-14) were 6.76 to 30.3 nM and 0.158 to 4.71 nM.
In the same order, the values of `CCCC[C@H]1C(=O)N(C)[C@@H](CCCC)C(=O)N[C@@H](C)C(=O)N[C@H](C(=O)NCC(N)=O)CSCC(=O)N[C@@H](Cc2ccc(O)cc2)C(=O)N(C)[C@@H](C)C(=O)N[C@@H](CC(=O)O)C(=O)N2CCC[C@H]2C(=O)N[C@@H](Cc2cnc[nH]2)C(=O)N[C@@H](CC(C)C)C(=O)N2CCC[C@H]2C(=O)N[C@@H](Cc2c[nH]c3ccccc23)C(=O)N[C@@H](CO)C(=O)N[C@@H](Cc2c[nH]c3ccccc23)C(=O)N1C` [Example 1121] ({CH2CO}-Y[NMeA]DPHLPWSW[NMeNle][NMeNle]ACG-NH2; thioether N-14) are 6.76 to 30.3 nM and 0.158 to 4.71 nM.
Consider `CCCC[C@H]1C(=O)N(C)[C@@H](CCCC)C(=O)N[C@@H](CCCNC(=N)N)C(=O)N[C@H](C(=O)NCC(N)=O)CSCC(=O)N[C@@H](Cc2ccc(O)cc2)C(=O)N(C)[C@@H](C)C(=O)N[C@@H](CC(=O)O)C(=O)N2CCC[C@H]2C(=O)N[C@@H](Cc2cnc[nH]2)C(=O)N[C@@H](CC(C)C)C(=O)N2CCC[C@H]2C(=O)N[C@@H](Cc2c[nH]c3ccccc23)C(=O)N[C@@H](CO)C(=O)N[C@@H](Cc2c[nH]c3ccccc23)C(=O)N1C` [Example 1122] ({CH2CO}-Y[NMeA]DPHLPWSW[NMeNle][NMeNle]RCG-NH2; thioether N-14), for which the IC50 at Human PD-L1/PD-1 fell in the range of 6.76 to 30.3 nM; in assay [1], 0.158 to 4.71 nM.
Consider `CCCC[C@H]1C(=O)N(C)[C@@H](CCCC)C(=O)N[C@@H](CCCN)C(=O)N[C@H](C(=O)NCC(N)=O)CSCC(=O)N[C@@H](Cc2ccc(O)cc2)C(=O)N(C)[C@@H](C)C(=O)N[C@@H](CC(N)=O)C(=O)N2CCC[C@H]2C(=O)N[C@@H](Cc2cnc[nH]2)C(=O)N[C@@H](CC(C)C)C(=O)N2C[C@H](O)C[C@H]2C(=O)N[C@@H](Cc2c[nH]c3ccccc23)C(=O)N[C@@H](CO)C(=O)N[C@@H](Cc2c[nH]c3ccccc23)C(=O)N1C` [Example 1123], for which the results for the IC50 (on Human PD-L1/PD-1; in assay [1]) were 0.385 to 6.74 nM and 0.158 to 4.71 nM, respectively.
In the same order, the values of `CCCC[C@H]1C(=O)N(C)[C@@H](CCCC)C(=O)N[C@@H](CCCNC(=N)N)C(=O)N[C@H](C(=O)NCC(N)=O)CSCC(=O)N[C@@H](Cc2ccc(Cl)cc2)C(=O)N(C)[C@@H](C)C(=O)N[C@@H](CC(N)=O)C(=O)N2CCC[C@H]2C(=O)N[C@@H](Cc2cnc[nH]2)C(=O)N[C@@H](CC(C)C)C(=O)N2CCC[C@H]2C(=O)N[C@@H](Cc2c[nH]c3ccccc23)C(=O)N[C@@H](CO)C(=O)N[C@@H](Cc2csc3ccccc23)C(=O)N1C` [Example 1124] ({CH2CO}-[Phe(4-Cl)][NMeA]NPHLPWS[Bta][NMeNle][NMeNle]RCG-NH2; thioether N-14) are 6.76 to 30.3 nM and 4.78 to 72.9 nM.
Take `CCCC[C@H]1C(=O)N(C)[C@@H](CCCC)C(=O)N[C@@H](CCCNC(=N)N)C(=O)N[C@H](C(=O)NCC(N)=O)CSCC(=O)N[C@@H](Cc2ccc(O)cc2)C(=O)N(C)[C@@H](C)C(=O)N[C@@H](CC(N)=O)C(=O)N2CCC[C@H]2C(=O)N[C@@H](Cc2cnc[nH]2)C(=O)N[C@@H](CC(C)C)C(=O)N2CC(F)(F)C[C@H]2C(=O)N[C@@H](Cc2c[nH]c3ccccc23)C(=O)N[C@@H](CO)C(=O)N[C@@H](Cc2c[nH]c3ccccc23)C(=O)N1C` [Example 1126]: the half-maximal inhibitory concentration (IC50) was in the range of 6.76 to 30.3 nM on Human PD-L1/PD-1 and 0.158 to 4.71 nM in assay [1].
